Test results from patent publication US7842690B2, “Cyclic hydroxylamine as psychoactive compounds” (BTG International Limited, priority 2003, dated 2010).

Experiments:
Format in all cases: in vivo
[1] = test system: rats; assay: Elevated plus maze (X-maze) in rats; settings: 5-min period
Text: The X-maze is constructed from Perspex® and comprises four arms (2 open, 2 closed), each 50 cm long by 9.5 wide and 40 high (closed, arms only) connected by a centre square (9.5×9.5). The open arm has a small lip (3 mm) to assist in the retention of the rat on the arm. The apparatus was housed in a room under subdued lighting conditions.
This model is based on the observation of spontaneous activity of rodents placed in an aversive environment produced by height and often spaces. […] Anxiolytic drugs increase the exploratory activity and the number of entries into the open arms. Rats were allowed at least 1 hour to acclimatise to the environment before testing commenced. Drug treatments were given IP in a pseudo-random, blind design, 40 minutes before behavioural testing, as appropriate. Rats were placed onto the centre square of the X-maze facing a specified open arm, and its behaviour was recorded by remote video over a 5 minute experimental period. The behavioural parameters were subsequently assessed by technicians reviewing the videotape and included: entries into each arm type, time spent on each arm type, rearing, stretch attend postures and head dips.

[2] = test system: BKW male albino mice; assay: Black and white box test (Example 10); settings: 5-min period; for TB = time in white section: signed value
[3] = test system: rats; assay: Escape deficit test (learned helplessness), antidepressant activity; settings: rats treated IP for 15 days, unavoidable stress 16 h and escape test 24 h after last dosing; out of 30 trials; dose not given
Protocol: The “Escape deficit” test that derives from the classic paradigm of “learned helplessness” was used, as described by Meloni et al. in Pharmacol. Biochem. Behav. 46, 423-6 (1993) and Gambarana et al. in Behav. Pharmacol. 6, 66-73 (1995) and Neuropsychopharmacol. 21, 247-57 (1999). Exposure to an unavoidable stress induces […], which, after 24 hours, makes the rats unable to escape from a nociceptive stimulus. Rats exposed to unavoidable stress make 0-5 escapes out of 30 trials, while naïve rats realise 26-30 escapes. Classical anti-depressives prevent the occurrence of the escape deficit after chronic treatment (15 days).
Rats were treated intra-peritoneally (IP) for 15 days, and then submitted to the unavoidable stress (16 hours after the last dosing) prior to being subjected to the escape test (24 hours after the last dosing).

[4] = test system: mouse; assay: Black and white box test (Example 14); settings: for Parameter 1: Latency L (initial movement from the white to the black area), Mean / Parameter 2: Time spent in White area (TW), Mean: 5-min recording; for Parameter 3: Transitions/5 min (T), Mean: transitions between the two compartments; for Parameter 4: Total Activity: Atot, Mean: white and black compartments
Protocol: The characteristic action of anxiolytic agents is to cause a redistribution of exploratory activity and time spent in the white section.
Each mouse was placed into the centre of the white, brightly lit area bacldng the opening between the B/W compartments. Animals behaviour was recorded by a remote video camera for 5 minutes. The recordings were subsequently evaluated on the TV by two operators unaware of drug treatment. The following behavioural parameters were recorded: • a) the latency of the initial movement from the white to the black area: L (sec); • b) the time spent in the white area TW (sec); the time spent in the black area is calculated by the difference: […] (sec); • c) the number of transitions between the two compartments T (No./5 min); • d) the total activity in the white and black compartments, Atot (No./5 min); • e) the total activity in the white area throughout the time spent in the white area: • AtotW/TW (No./sec); • f) the total activity in the black area throughout the time spent in the black area: AtotB/TB (No./sec); • g) the total number of exploratory rearings: Rtot (No./5 min); • h) the total number of line crossings: Ctot (No./5 min); • i) the number of exploratory rearings in the white section RW/TW (No./sec); • j) the number of line crossings in the white section CW/TW (No./sec).
Each group was composed by 8 animals.

[5] = 0.125 mg/kg IP 40 min before test
[6] = 0.1 mg/kg IP 40 min before test
[7] = IP 40 min before test, dose not given
[8] = 1.25 mg/kg IP 40 min before test

cis-1,2,3,4,5,6a,7,8,9,10a,10b-dodeca-1,4-oxazino-[3′,4′:2,3]benzo[d]isoxazol-4-one [Comparative Compound A]
% time spent in open arms [1, 5]: 21 ± 11% | No. of entries in open arms [1, 5]: 3 ± 1.1 | Atot = Total exploratory activity [2, 6]: +53.7 | CB/TB = crossings in the white compartment/time in white [2, 6]: +0.01 | CN/TN = crossings in the black compartment/time in black [2, 6]: +0.08 | Ctot = total number of crossings [2, 6]: +19.1 | FI = Initial potency [2, 6]: +8.1 | PT = Total passages through the partition [2, 6]: +4.1 | RB/TB = rearings in the white compartment/time in white [2, 6]: +0.04 | RN/TN = rearings in the black compartment/time in black [2, 6]: +0.13 | Rtot = Total number of rearings [2, 6]: +23.9 | TB = time in white section [2, 6]: +52.1 | No. of escapes [3]: 3.5 ± 0.9

CN1C(=O)CN=C(c2ccccc2)c2cc(Cl)ccc21 [Diazepam]
Parameter 5: Total Activity in white area: AtotW/TW, Mean ([4]; 1.25 mg/kg): .723 No./sec | Parameter 6: Total Activity in black area: AtotB/TB, Mean ([4]; 1.25 mg/kg): .723 No./sec | Parameter 7: Rtot (total number of exploratory rearings), Mean ([4]; 1.25 mg/kg): 68.750 No./5 min | Parameter 8: Ctot (total number of line crossings), Mean ([4]; 1.25 mg/kg): 144.375 No./5 min | Parameter 9: RW/TW (exploratory rearings in the white section), Mean ([4]; 1.25 mg/kg): .124 No./sec | Parameter 10: CW/TW (line crossings in the white section), Mean ([4]; 1.25 mg/kg): .599 No./sec | Parameter 1: Latency L (initial movement from the white to the black area), Mean ([4]; 1.25 mg/kg): 13.750 s | Parameter 2: Time spent in White area (TW), Mean ([4]; 1.25 mg/kg): 97.750 s | Parameter 3: Transitions/5 min (T), Mean ([4]; 1.25 mg/kg): 13.375 No./5 min | Parameter 4: Total Activity: Atot, Mean ([4]; 1.25 mg/kg): 213.125 No./5 min | % time spent in open arms [1, 7]: 25 ± 5% | No. of entries in open arms [1, 7]: 4 ± 0.6 | Atot = Total exploratory activity [2, 8]: +46.7 | CB/TB = crossings in the white compartment/time in white [2, 8]: +0.08 | CN/TN = crossings in the black compartment/time in black [2, 8]: +0.1 | Ctot = total number of crossings [2, 8]: +30.7 | FI = Initial potency [2, 8]: +12.7 | RB/TB = rearings in the white compartment/time in white [2, 8]: +0.06 | RN/TN = rearings in the black compartment/time in black [2, 8]: +0.09 | Rtot = Total number of rearings [2, 8]: +21.2 | TB = time in white section [2, 8]: +33.2

ON1CCCCC1Cc1ccccc1 (centres unmarked) [Example P6, 2-benzylpiperidin-1-ol]
Parameter 5: Total Activity in white area: AtotW/TW, Mean ([4]; 0.1 mg/kg): .705 No./sec | Parameter 6: Total Activity in black area: AtotB/TB, Mean ([4]; 0.1 mg/kg): .835 No./sec | Parameter 7: Rtot (total number of exploratory rearings), Mean ([4]; 0.1 mg/kg): 75.625 No./5 min | Parameter 8: Ctot (total number of line crossings), Mean ([4]; 0.1 mg/kg): 153.750 No./5 min | Parameter 9: RW/TW (exploratory rearings in the white section), Mean ([4]; 0.1 mg/kg): .190 No./sec | Parameter 10: CW/TW (line crossings in the white section), Mean ([4]; 0.1 mg/kg): .515 No./sec | Parameter 1: Latency L (initial movement from the white to the black area), Mean ([4]; 0.1 mg/kg): 14.500 s | Parameter 2: Time spent in White area (TW), Mean ([4]; 0.1 mg/kg): 152.125 s | Parameter 3: Transitions/5 min (T), Mean ([4]; 0.1 mg/kg): 24.250 No./5 min | Parameter 4: Total Activity: Atot, Mean ([4]; 0.1 mg/kg): 229.375 No./5 min
